Test results: BindingDB's records for doi:10.7270/Q2BG2MFK (Nmmlsc, 2010)

Molecular target: T1, Regulator of G-protein signaling 19 (Homo sapiens, UniProt P49795)
T1 sequence (P49795 whole entry): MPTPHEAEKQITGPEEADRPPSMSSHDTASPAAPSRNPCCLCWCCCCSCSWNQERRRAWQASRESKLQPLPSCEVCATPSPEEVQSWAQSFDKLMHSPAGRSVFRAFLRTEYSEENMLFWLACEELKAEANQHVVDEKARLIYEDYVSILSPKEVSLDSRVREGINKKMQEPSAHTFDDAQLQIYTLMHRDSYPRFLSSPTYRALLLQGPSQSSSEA
Experiment: analogs regulating RGS19 interaction with Gαo – biochemical, SAR compounds, multiplexed bead flow cytometry, SAR follow-up (AID 2311)
Details: not given

| Compound | EC50 [nM] |
| --- | --- |
| O=C(NCCCN1CCOCC1)c1sc2cc([N+](=O)[O-])ccc2c1Cl [3-chloranyl-N-(3-morpholin-4-ylpropyl)-6-nitro-1-benzothiophene-2-carboxamide] | 488 |
| O=c1c2ccccc2sn1-c1ccc(S(=O)(=O)N2CCCC2)cc1 [2-(4-pyrrolidin-1-ylsulfonylphenyl)-1,2-benzothiazol-3-one] | > 30000 |
| CC(NC(=O)c1sc2cc([N+](=O)[O-])ccc2c1Cl)C(C)(C)C (stereo unspecified) [3-chloranyl-N-(3,3-dimethylbutan-2-yl)-6-nitro-1-benzothiophene-2-carboxamide] | > 30000 |
| CCOC(=O)c1sc(NC(=O)CSc2nnc(Cc3ccccc3)o2)c(C#N)c1C [4-cyano-3-methyl-5-[[1-oxo-2-[[5-(phenylmethyl)-1,3,4-oxadiazol-2-yl]thio]ethyl]amino]-2-thiophenecarboxylic acid ethyl ester] | 155 |
| NS(=O)(=O)c1ccc(N=NCc2ccc(O)c(O)c2O)c([N+](=O)[O-])c1 [4-[[(E)-(2,3-dihydroxy-4-oxo-1-cyclohexa-2,5-dienylidene)methyl]hydrazo]-3-nitrobenzenesulfonamide] | 109 |
| COC(=O)CCC(=O)Nc1sc(C)c(C)c1C(N)=O [4-[(3-carbamoyl-4,5-dimethyl-2-thienyl)amino]-4-keto-butyric acid methyl ester] | > 30000 |
| CCN(CC)S(=O)(=O)c1cccc(C(=O)NN=Cc2ccc(O)c(O)c2O)c1 | > 30000 |
| O=C(COc1ccccc1C(=O)NN=Cc1ccc(O)c(O)c1)NN=Cc1ccc(O)c(O)c1 [N''-[(Z)-(3-hydroxy-4-oxo-1-cyclohexa-2,5-dienylidene)methyl]-2-[2-[[(Z)-(3-hydroxy-4-oxo-1-cyclohexa-2,5-dienylidene)methyl]hydrazo]-2-oxoethoxy]benzohydrazide] | > 30000 |
| CCN=c1scc(C)n1N=Cc1ccc(O)c(O)c1O | 378 |
| Cc1cccc(N2CCN(C(=O)COc3nsc4nc(C)cc(C)c34)CC2C)c1 (stereo unspecified) | 590 |
| Cc1[nH]n(-c2ccccc2)c(=S)c1C=NCCCN=Cc1c(C)[nH]n(-c2ccccc2)c1=S | 56 |
| Cc1[nH]n(-c2ccccc2)c(=S)c1/C=N/c1cccc([N+](=O)[O-])c1 [(4E)-5-methyl-4-[(3-nitroanilino)methylene]-2-phenyl-2-pyrazoline-3-thione] | > 30000 |
| CN1CCN(C2=C(Cl)C(=O)C(c3cnc(N4CCCCC4)s3)=C(Cl)C2=O)CC1 | 27 |
| CN=c1scc(C)n1N=Cc1ccc(O)c(O)c1O [(4E)-2,3-dihydroxy-4-[[(4-methyl-2-methylimino-1,3-thiazol-3-yl)amino]methylidene]cyclohexa-2,5-dien-1-one] | 209 |
| CCN(CC)S(=O)(=O)c1cccc(-c2n[nH]c(=S)n2N=Cc2ccc(C(=O)OC)cc2)c1 [4-[(E)-[3-[3-(diethylsulfamoyl)phenyl]-5-thioxo-1H-1,2,4-triazol-4-yl]iminomethyl]benzoic acid methyl ester] | > 30000 |
| Cc1cccc(N2CCN(C(=O)Cn3sc4nc(C)cc(C)c4c3=O)CC2C)c1 (stereo unspecified) [2-[2-keto-2-[3-methyl-4-(m-tolyl)piperazino]ethyl]-4,6-dimethyl-isothiazolo[5,4-b]pyridin-3-one] | 100 |
| O=c1c2ccccc2sn1-c1ccccc1 [2-phenyl-1,2-benzothiazol-3-one] | > 30000 |

Now from value to compound:

| EC50 [nM] | Compound |
| --- | --- |
| > 30000 | Nc1c(C(=O)NCC2CCCO2)sc2nc3c(c(-c4ccco4)c12)CC/C3=C/c1ccco1 (stereo unspecified) [UNM-0000305796] |
| 794 | O=C(Cc1csc(N2CCOCC2)n1)NN=Cc1ccc(O)c(O)c1O [SMR000369439] |
| 82 | O=C1C(Cl)=C(N2CCCCC2)C(=O)C(Cl)=C1c1cnc(N2CCCCC2)s1 [MLS000550549] |
| 169 | COc1ccc(C2=CC(=O)C=CC2=O)cc1 [MLS001029846] |
| 115 | Cc1cc(Cl)ccc1/N=c1/ssnc1Cl [MLS000539990] |
| 16 | CC(=O)OCCCNc1cc(Sc2nc3ccccc3s2)c2nonc2c1[N+](=O)[O-] [MLS000521052] |
| 245 | CC1(C)OC(=O)C(=Cc2ccc(-c3ccc(S(N)(=O)=O)cc3)o2)C(=O)O1 [SMR000273939] |
| 1240 | CCC(=O)NC(c1ccc(C)cc1)c1cc([N+](=O)[O-])c2cccnc2c1O (stereo unspecified) [MLS000553854] |

Same assay, conditions: inactive by the depositor's call

| EC50 [nM] | Compound |
| --- | --- |
| 4690 | CCOc1ccccc1-c1c2cc(O)c(=O)cc-2oc2cc(O)c(O)cc12 [MLS000578271] |
